Laboratory results reported in patent publication US11214594B2, “Antimicrobial peptide having synergistic antibacterial effect with antibiotics on multidrug resistant bacteria, and use thereof” (priority 2016, dated 2022).
Where two headings read alike, the source gives them in different places. Where a SMILES comes first, the peptide text is derived from it.

Key:
[1] = system: S. typhimurium; experiment: microbe, parasite or virus in culture; type: cell-based, Salmonella typhimurium
Outline: (§1)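 MIC read-out = lowest peptide level with no bacterial proliferation. Strains diluted in MH medium to 2×10^6 CFU; peptide twofold serial dilutions in MH added 1:1 in microtiter wells.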

[2] = system: MDRPA 2003; type: cell-based, Pseudomonas aeruginosa
Outline: as §1

[3] = system: MDRPA 2002; type: cell-based, Pseudomonas aeruginosa
Outline: as §1

[4] = system: MDRAB 12035; experiment: microbe, parasite or virus in culture; type: cell-based, Acinetobacter baumannii
Outline: as §1

[5] = system: A. baumannii; experiment: microbe, parasite or virus in culture; type: cell-based, Acinetobacter baumannii
Outline: as §1

[6] = system: MDREC 1229; experiment: MIC of antibiotic during combined treatment with antimicrobial peptide; type: cell-based, Escherichia coli
Outline: (§2)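 Antibiotic MIC came from antibiotic dilutions added to bacteria (2×10^6 CFU/ml, MH medium) already combined with peptide serially diluted 2:1 from its own MIC. Swapping the roles of the two agents gave the peptide MIC.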

[7] = system: MDRAB 12035; experiment: as above; type: cell-based, Acinetobacter baumannii
Outline: as §2

[8] = system: MRSA 3126; type: cell-based, Staphylococcus aureus; details: 3126
Outline: as §1

[9] = system: MRSA 3114; type: cell-based, Staphylococcus aureus; details: 3114
Outline: as §1

[10] = system: MDREC 1238; type: cell-based, Escherichia coli
Outline: as §1

[11] = system: MDRAB 12035; experiment: MIC of antimicrobial peptide during combined treatment with antibiotic; type: cell-based, Acinetobacter baumannii
Outline: as §2

[12] = system: A. baumannii; experiment: as above; type: cell-based, Acinetobacter baumannii
Outline: as §2

[13] = system: MDRAB 12036; type: cell-based, Acinetobacter baumannii
Outline: as §1

[14] = system: S. epidermidis; experiment: microbe, parasite or virus in culture; type: cell-based, Staphylococcus epidermidis
Outline: as §1

[15] = system: S. aureus; experiment: microbe, parasite or virus in culture; type: cell-based, Staphylococcus aureus
Outline: as §1

[16] = system: P. aeruginosa; experiment: microbe, parasite or virus in culture; type: cell-based, Pseudomonas aeruginosa
Outline: as §1

[17] = system: E. coli; type: cell-based, Escherichia coli; details: E. coli
Outline: as §2

[18] = system: MDREC 1229; type: cell-based, Escherichia coli
Outline: as §2

[19] = system: B. subtilis; experiment: microbe, parasite or virus in culture; type: cell-based, Bacillus subtilis
Outline: as §1

[20] = system: MDRST 8007; experiment: Minimal inhibitory concentration (MIC), single agent; type: cell-based, Salmonella typhimurium; details: agent alone
Outline: as §1

[21] = peptide treatment concentration 1 μg/ml
[22] = peptide treatment concentration 2 μg/ml
[23] = peptide treatment concentration 4 μg/ml
[24] = peptide treatment concentration 6 μg/ml
[25] = peptide treatment concentration 8 μg/ml
[26] = peptide treatment concentration 16 μg/ml
[27] = peptide treatment concentration 32 μg/ml
[28] = peptide treatment concentration 64 μg/ml
[29] = erythromycin 4 μg/ml (Conc./MIC 1/8)
[30] = erythromycin 8 μg/ml (Conc./MIC 1/4)
[31] = erythromycin 16 μg/ml (Conc./MIC 1/2)
[32] = erythromycin 32 μg/ml (Conc./MIC 1)
[33] = vancomycin 512 μg/ml (Conc./MIC 1/2)
[34] = vancomycin 1024 μg/ml (Conc./MIC 1)
[35] = with Erythromycin […] (Conc./MIC 1)

CC[C@H](C)[C@H](NC(=O)[C@H](CCCCN)NC(=O)[C@H](Cc1c[nH]c2ccccc12)NC(=O)[C@@H](N)CCCNC(=N)N)C(=O)N[C@@H](Cc1ccccc1)C(=O)N[C@@H](CCCCN)C(=O)N[C@@H](CCCCN)C(=O)N[C@H](C(=O)N1CCC[C@H]1C(=O)N[C@@H](CCCCN)C(=O)N[C@@H](Cc1ccccc1)C(=O)N[C@@H](CC(C)C)C(=O)N[C@@H](Cc1c[nH]cn1)C(=O)N[C@@H](CO)C(=O)N[C@@H](Cc1ccccc1)C(=O)N[C@@H](CCCCN)C(=O)N[C@@H](CCCCN)C(=O)N[C@@H](Cc1ccccc1)C(N)=O)[C@@H](C)CC [PapMA-5, RWK IFK KIP KFL HSF KKF-NH2] (H-RWKIFKKIPKFLHSFKKF-NH2; N-terminus assumed)
128 µg/mL: Antibiotic MIC, Erythromycin [6, 21] | Antibiotic MIC, Linezolid [6, 21] | Antibiotic MIC, Linezolid [6, 22] | Linezolid MIC during combined treatment with peptide [7, 22] | Vancomycin MIC during combined treatment with peptide [7, 23]
4 µg/mL: Antibiotic MIC, Erythromycin [6, 25] | Antibiotic MIC, Linezolid [6, 27] | Linezolid MIC during combined treatment with peptide [7, 27] | Vancomycin MIC during combined treatment with peptide [7, 27] | Peptide MIC during treatment with erythromycin [11, 29] | Peptide MIC during treatment with erythromycin [11, 30] | Peptide MIC during treatment with erythromycin [11, 31] | Peptide MIC during treatment with linezolid ([11]; linezolid 64 μg/ml (Conc./MIC 1/8)) | Peptide MIC during treatment with linezolid ([11]; linezolid […] (Conc./MIC 1/4)) | Peptide MIC during treatment with vancomycin ([11]; vancomycin […] (Conc./MIC 1/4)) | Peptide MIC during treatment with vancomycin ([11]; vancomycin […] (Conc./MIC 1/8)) | Peptide MIC during treatment with antibiotic [12, 30] | Peptide MIC during treatment with antibiotic ([12]; linezolid 32 μg/ml (Conc./MIC 1/8)) | Peptide MIC during treatment with antibiotic ([12]; vancomycin […] (Conc./MIC 1/8))
0.25 µg/mL: Antibiotic MIC, Erythromycin [6, 27] | Erythromycin MIC during combined treatment with peptide [7, 26]
0.5 µg/mL: Peptide MIC during treatment with antibiotic [12, 33]
0.125 µg/mL: Erythromycin MIC during combined treatment with peptide [7, 27]
2 µg/mL: Erythromycin MIC during combined treatment with peptide [7, 24] | Peptide MIC during treatment with vancomycin [11, 33] | Peptide MIC during treatment with antibiotic [12, 31] | Peptide MIC during treatment with antibiotic ([12]; linezolid 64 μg/ml (Conc./MIC 1/4))
0 µg/mL: Antibiotic MIC, Erythromycin [6, 28] | Antibiotic MIC, Linezolid [6, 28] | Antibiotic MIC, Vancomycin [6, 28] | Erythromycin MIC during combined treatment with peptide [7, 28] | Linezolid MIC during combined treatment with peptide [7, 28] | Vancomycin MIC during combined treatment with peptide [7, 28] | Peptide MIC during treatment with erythromycin [11, 32] | Peptide MIC during treatment with linezolid ([11]; linezolid 512 μg/ml (Conc./MIC 1)) | Peptide MIC during treatment with antibiotic [12, 32] | Peptide MIC during treatment with antibiotic ([12]; linezolid […] (Conc./MIC 1)) | Peptide MIC during treatment with antibiotic [12, 34] | Peptide MIC [17, 35] | Peptide MIC ([17]; with Linezolid […] (Conc./MIC 1)) | Peptide MIC ([17]; with Vancomycin 1024 μg/ml (Conc./MIC 1)) | Peptide MIC [18, 35] | Peptide MIC ([18]; with Linezolid 512 μg/ml (Conc./MIC 1))
16 µg/mL: Minimal inhibitory concentration MIC [2] | Minimal inhibitory concentration MIC [3] | Antibiotic MIC, Erythromycin [6, 23] | Antibiotic MIC, Linezolid [6, 26] | Antibiotic MIC, Vancomycin [6, 26] | Erythromycin MIC during combined treatment with peptide [7, 23] | Linezolid MIC during combined treatment with peptide [7, 24] | Vancomycin MIC during combined treatment with peptide [7, 25] | Minimal inhibitory concentration MIC [16]
>128 µg/mL: Antibiotic MIC, Vancomycin [6, 21] | Antibiotic MIC, Vancomycin [6, 22] | Antibiotic MIC, Vancomycin [6, 23] | Antibiotic MIC, Vancomycin [6, 24] | Linezolid MIC during combined treatment with peptide [7, 21] | Vancomycin MIC during combined treatment with peptide [7, 21] | Vancomycin MIC during combined treatment with peptide [7, 22] | Minimal inhibitory concentration MIC [8] | Minimal inhibitory concentration MIC [9] | Minimal inhibitory concentration MIC [14] | Minimal inhibitory concentration MIC [15] | Minimal inhibitory concentration MIC [19]
64 µg/mL: Minimal inhibitory concentration MIC [1] | Minimal inhibitory concentration MIC [4] | Peptide MIC, peptide alone [4] | Minimal inhibitory concentration MIC [5] | Peptide MIC, peptide alone [5] | Antibiotic MIC, Erythromycin [6, 22] | Antibiotic MIC, Linezolid [6, 23] | Antibiotic MIC, Vancomycin [6, 25] | Linezolid MIC during combined treatment with peptide [7, 23] | Minimal inhibitory concentration MIC [10] | Minimal inhibitory concentration MIC [13] | Minimal inhibitory concentration MIC [20]
32 µg/mL: Antibiotic MIC, Linezolid [6, 24] | Antibiotic MIC, Linezolid [6, 25] | Erythromycin MIC during combined treatment with peptide [7, 21] | Erythromycin MIC during combined treatment with peptide [7, 22] | Vancomycin MIC during combined treatment with peptide [7, 24]
1 µg/mL: Antibiotic MIC, Erythromycin [6, 26] | Erythromycin MIC during combined treatment with peptide [7, 25] | Peptide MIC during treatment with linezolid ([11]; linezolid […] (Conc./MIC 1/2)) | Peptide MIC during treatment with vancomycin [11, 34] | Peptide MIC during treatment with antibiotic ([12]; linezolid […] (Conc./MIC 1/2)) | Peptide MIC during treatment with antibiotic ([12]; vancomycin […] (Conc./MIC 1/4))
8 µg/mL: Antibiotic MIC, Erythromycin [6, 24] | Antibiotic MIC, Vancomycin [6, 27] | Linezolid MIC during combined treatment with peptide [7, 25] | Linezolid MIC during combined treatment with peptide [7, 26] | Vancomycin MIC during combined treatment with peptide [7, 26] | Peptide MIC during treatment with antibiotic [12, 29]
